Laboratory results reported in patent US20180250404A1, “HIGH-Z NANOPARTICLES AND THE USE THEREOF IN RADIATION THERAPY” (Board of Regents, The University of Texas System, priority 2015, published 2018).
“Also recorded” adds a separate entry of the source.

Key:
HN5 cells [1] = experiment: Clonogenic survival with inhibitors of endocytosis steps plus cGNR; type: cell-based; conditions: HN5, 250 kVp; inhibitor pre-treatment 1 hr, then cGNR 24 hr; CPZ 5 μg/ml, BAF-A1 100 nM, LAC 1 μM, CHQ 5 μM
From the text: (§1) FIGS. 5A-5G: Blocking endocytosis steps modulates radiosensitization by cGNRs. […] The radiation dose enhancement factor (DEF) at 10% cell survival was cGNR—1.08, CPZ+cGNR—1.005, BAF-A1+cGNR—1.19, LAC+cGNR—1.16, and CHQ+cGNR—1.20. (B) Intracellular localization cGNR in HN5 cells imaged by TEM 24 hrs after treatment with cGNRs in the presence of (a) PBS, (b) CPZ, (c) BAF-A1, (d) LAC or (e) CHQ for 1 hr. […] (E) Reactive oxygen species measured by CellROX assay kit following treatment of HN5 cells with 2 Gy radiation in the absence or presence of specific inhibitors of internalization with and without cGNRs. […] (F) Elemental gold content of cells analyzed by inductively coupled plasma mass spectrometry.
(§2) To study the effect of each step of cGNR internalization on radiosensitization, each step of the endocytotic pathway (energy-dependent receptor-mediated endocytosis, early endosomal entrapment, stasis in the late endosomal compartment, and endolysosomal fusion) was blocked using pharmacologic inhibitors in HN5 cells.

HN5 cells [2] = experiment: Intracellular localization of cGNR by TEM; type: cell-based; conditions: TEM 24 hrs after cGNRs, inhibitor for 1 hr
From the text: as §1, §2

HN5 cells [3] = experiment: γ-H2AX foci formation (DNA damage); type: cell-based; conditions: inhibitor pretreatment, cGNR 24h, 2 Gy (250 kV, 15 mA)
From the text: as §1
Therefore, γ-H2AX was evaluated in HN5 cells pretreated with different pharmacological inhibitors and incubated with cGNR for 24h followed by 2 Gy of radiation (250 kV, 15 mA) (FIG. 5C).

HN5 cells [4] = experiment: Micronuclei per 1000 binucleated cells; type: cell-based; conditions: cGNRs 24 hrs and radiation, inhibitor pretreatment 1 hr
From the text: as §1
FIG. 10A-10C: Number of micronuclei per 1000 binucleated cells broken down as (A) one, (B) two, or (C) multiple. Cells were treated with cGNRs and radiation in the absence or presence of specific inhibitors of internalization.

HN5 cells [5] = experiment: Reactive oxygen species by CellROX assay kit; type: cell-based; conditions: 2 Gy radiation, with cGNRs, with or without inhibitors
From the text: as §1

HN5 cells [6] = experiment: Elemental gold content of cells by ICP-MS; type: cell-based; conditions: 24 h treatment
From the text: as §1

HN5 xenografts = experiment: Tumor regrowth delay of HN5 xenografts with radiation; type: in vivo, nu/nu mice; conditions: CHQ 6 hrs and 24 hrs before radiation, with cGNRs; p=0.02
From the text: as §1

| Compound | radiation dose enhancement factor (DEF) at 10% cell survival (HN5 cells [1]) | intracellular localization of cGNR (HN5 cells [2]) | γ-H2AX foci / DNA damage (HN5 cells [3]) | γ-H2AX foci / DNA damage (HN5 cells [3]; listed as BAF-A1) | γ-H2AX foci / DNA damage (HN5 cells [3]; listed as Bafilomycin) | micronuclei per 1000 binucleated cells (HN5 cells [4]) | micronuclei per 1000 binucleated cells (HN5 cells [4]; listed as BAF-A1) | intracellular reactive oxygen species (HN5 cells [5]) | intracellular reactive oxygen species (HN5 cells [5]; listed as BAF-A1) | cellular gold content / uptake of cGNR (HN5 cells [6]) | cellular gold content / uptake of cGNR (HN5 cells [6]; listed as BAF-A1) | γ-H2AX foci / DNA damage (HN5 cells [3]; listed as CHQ) | cellular gold content / uptake of cGNR (HN5 cells [6]; listed as CHQ) | time to tumor volume quadrupling (HN5 xenografts) | γ-H2AX foci / DNA damage (HN5 cells [3]; listed as CPZ) | γ-H2AX foci / DNA damage (HN5 cells [3]; listed as LAC) | micronuclei per 1000 binucleated cells (HN5 cells [4]; listed as LAC) | intracellular reactive oxygen species (HN5 cells [5]; listed as LAC) | cellular gold content / uptake of cGNR (HN5 cells [6]; listed as LAC) |
| --- | --- | --- | --- | --- | --- | --- | --- | --- | --- | --- | --- | --- | --- | --- | --- | --- | --- | --- | --- |
| CO/C1=C\C(C)=C\[C@@H](C)[C@@H](O)[C@@H](C)C/C(C)=C/C=C/[C@H](OC)[C@@H]([C@@H](C)[C@@H](O)[C@H](C)[C@@]2(O)C[C@@H](O)[C@H](C)[C@@H](C(C)C)O2)OC1=O [bafilomycin A, bafilomycin A1] | 1.19 | unclustered cGNRs | greatest increase in DNA damage | increased foci formation | further enhanced the DNA damage | significantly higher number of MNBC | enhancement in radiosensitization; also recorded: significant increase in radiation-induced micronuclei formation | further enhanced the intracellular ROS | even greater enhancement of oxidative stress | no significant differences in the cellular uptake of cGNR | no different |  |  |  |  |  |  |  |  |
| CCN(CC)CCCC(C)Nc1ccnc2cc(Cl)ccc12 (stereo not shown) [chloroquine] | 1.2 | unclustered cGNRs | further enhanced the DNA damage |  |  |  |  |  |  | no significant differences in the cellular uptake of cGNR |  | increased foci formation | no different | statistically significant increase in time to tumor volume quadrupling |  |  |  |  |  |
| CN(C)CCCN1c2ccccc2Sc2ccc(Cl)cc21 [chlorpromazine] | 1.005 | blocked internalization of cGNRs | abrogated the effect of cGNR treatment |  |  |  |  | reduced the intracellular ROS |  | significantly (p<0.001) inhibited the cellular uptake of cGNRs |  |  |  |  | not |  |  |  |  |
| CC(=O)N[C@@H](CSC(=O)[C@]1([C@@H](O)C(C)C)NC(=O)[C@H](C)[C@@H]1O)C(=O)O [lactacystin] | 1.16 | unclustered cGNRs | further enhanced the DNA damage |  |  | significantly higher number of MNBC |  | further enhanced the intracellular ROS |  | no significant differences in the cellular uptake of cGNR |  |  |  |  |  | increased foci formation | enhancement in radiosensitization; also recorded: significant increase in radiation-induced micronuclei formation | even greater enhancement of oxidative stress | no different |
